According to patent US11154533B2, “Topical compositions and methods for treating inflammatory skin diseases” (Azora Therapeutics, Inc., priority 2019, dated 2021):

How the values were obtained:
Test in all cases: Pharmacodynamics in Th17-stimulated human skin on Franz cell, qPCR
Format in all cases: cell-based
Conditions in all cases: control added to receptor solution at 40 hours and 16 hours prior to Th17 stimulation
IL1-beta = tested on: IL1-beta
Procedure: (§1) Example 5 describes results of a study on the pharmacodynamics of composition identified as formulation identification no. OO14. In this study, human skin placed on a static in vitro diffusion cell and a fixed amount of the formulation was applied to the skin. The formulation was applied to the skin at either 16 hours prior to or both 40 hours and 16 hours prior to Th17 stimulation. The receptor solution was replaced with the Th17 stimulation media was incubated for 24 hours prior to harvesting. […] As a control, 0.01% betamethasone (BMV) was added to the receptor solution at both 40 hours and 16 hours prior to Th17 stimulation.
(§2) Freshly excised human skin was dermatomed to 750 microns with the stratum corneum intact and placed on a static Franz cell employing ˜0.6 cm^2 of skin. 10 μL of a topical formulation OO14 containing 0.079% synthetic indirubin was applied to the skin at either 16 hours prior to stimulation or both 40 hours and 16 hours prior to Th17 stimulation. As a control, 0.01% betamethasone (BMV) was added to the receptor solution at both 40 hours and 16 hours prior to Th17 stimulation. The Th17 stimulation media contains a mixture of cytokines and antibodies shown to induce Th17 polarization and was made and added as described in the skin resident immune cell activation assay in Smith S. H. et al., PLoS ONE 11(2): e0147979. The skin was cultured for an additional 24 hours prior to harvesting for qPCR and staining for AhR activation.

IL17-alpha = tested on: IL17-alpha
Procedure: as §1, §2

IL8 = tested on: IL8
Procedure: as §1, §2

S100A7 = tested on: S100A7
Procedure: as §1, §2

C[C@H]1C[C@H]2[C@@H]3CCC4=CC(=O)C=C[C@]4(C)[C@@]3(F)[C@@H](O)C[C@]2(C)[C@@]1(O)C(=O)CO [0.01% BMV, betamethasone]
% Inhibition Compared to Th17, IL1-beta (IL1-beta): 58.66% | % Inhibition Compared to Th17, IL17-alpha (IL17-alpha): 96.99% | % Inhibition Compared to Th17, IL8 (IL8): 14.01% | % Inhibition Compared to Th17, S100A7 (S100A7): N/I* (Not Inhibited compared to Th17)
